The values below are quoted from earlier work in patent US6344215B1, “Methylphenidate modified release formulations” (Eurand America, Inc., priority 2000, dated 2002).

The conditions of the data set: gastrointestinal tract.

Counter-ions that a name gives are not always drawn.

As to `COC(=O)C(c1ccccc1)C1CCCCN1` (stereo not shown) [Methylphenidate Hydrochloride], the absorption entry was “well absorbed throughout the gastrointestinal tract”.
